Reference: patent publication US12383608B2, “WT1 helper peptides and combinations of WT1 helper peptide and conjugate of cancer antigen peptides” (Sumitomo Pharma Co., Ltd., priority 2016, dated 2025)

Test system: HLA-A*02:01 transgenic mouse (C57BL/6CrHLA-A2.1DR1)
Assay: In vivo CTL induction in HLA-A*02:01 transgenic mouse (IFNγ ELISPOT assay on splenocytes)
Settings: Montanide ISA 51 VG, intradermal; for Effect of the cocktail vaccine comprising the peptide on the CTL induction by the compound of formula (4): cocktail vaccine: helper peptide (170-315 μg per site) + compound of formula (4) (250 μg per site), molar ratio 1:1.13-1.15 or equimolar, compared with compound of formula (4) alone; for CTL induction by the cocktail vaccine comprising the peptide in addition to the compound of formula (4) (increase in number of CTLs): cocktail vaccine: helper peptide + compound of formula (4), compared with the vaccine comprising the compound of formula (4)
Procedure: The HLA-A*02:01 transgenic mouse (C57BL/6CrHLA-A2.1DR1) lacks mouse MHC, and instead expresses a chimeric IILA of a human MHC, HLA-A*02:01 with a mouse MHC, H-2Db, and HLA-DRB1*01:01.
The solution was diluted with water for injection to a concentration of 10 mg/ml, and then converted to an emulsion by addition of an equal volume of Montanide ISA 51 VG. […] One week after the administration, the mice were sacrificed with CO2 gas. Splenocytes were harvested from spleens removed from the mice. For detecting IFNγ-producing splenocytes, an IFNγ ELISPOT assay kit was used. In particular, an ELISPOT plate was treated with an anti-mouse-IFNγ antibody on the day before preparation of the splenocyte samples. On the next day, the plate was blocked by treatment with an RPMI 1640 medium with 10% FBS. To the blocked ELISPOT plate, the splenocyte samples from the HLA-A*02:01 transgenic mice were added at 1.25×10^5 cells/well. For in vitro stimulation of the cells, the peptide of SEQ ID NO: 15 was dissolved in DMSO at a concentration of 40 mg/ml, diluted with RPMI 1640 with 10% FBS to 40 μg/ml, and added to the splenocyte-containing wells at a final concentration of 10 μg/ml. The plate was incubated for 17 hours at 37° C. under an atmosphere of 5% CO2. Then, after removal of the culture medium from the wells, the ELISPOT plate was subjected to treatment for cell staining in accordance with the manufacturer's protocol. Stained spots were counted on ImmunoSpot Analyzer (C.T.L.).
The scale on the vertical axis of the graph of FIG. 1 indicates the number of cells (CTLs) which produced IFNγ in response to the stimulation with the peptide of SEQ ID NO: 15. The compound and the peptide administered to the mice are described under the bars. […] Therefore, effect of each vaccine in CTL induction is known from the difference in cell count between the black bar and the white bar. When no IFNγ is produced by cells in the absence of the stimulation with SEQ ID NO: 15, a white bar cannot have a height.
The solution was diluted with water for injection to a concentration of 10 mg/ml, and then converted to an emulsion by addition of an equal volume of Montanide ISA 51 VC.
(§1) The solution was diluted with water for injection to a concentration of 10 mg/ml, and then converted to an emulsion by addition of an equal volume of Montanide ISA 51 VG.
as §1, §1, §1, §1, §1, §1, §1, §1, §1

## RYFKLSHLQMHSRKHTGE [SEQ ID NO: 49]
  Effect of the cocktail vaccine comprising the peptide on the CTL induction by the compound of formula (4): enhanced
  CTL induction by the cocktail vaccine comprising the peptide in addition to the compound of formula (4) (increase in number of CTLs): highly effective in CTL induction

## KRYFKLSHLQMHSRK [SEQ ID NO: 9]
  Effect of the cocktail vaccine comprising the peptide on the CTL induction by the compound of formula (4): enhanced
  CTL induction by the cocktail vaccine comprising the peptide in addition to the compound of formula (4) (increase in number of CTLs): highly effective in CTL induction

## RYFKLSHLQMHSRKHT [SEQ ID NO: 48]
  Effect of the cocktail vaccine comprising the peptide on the CTL induction by the compound of formula (4): enhanced
  CTL induction by the cocktail vaccine comprising the peptide in addition to the compound of formula (4) (increase in number of CTLs): highly effective in CTL induction

## AYPGCNKRYFKLSHL [SEQ ID NO: 2]
  Effect of the cocktail vaccine comprising the peptide on the CTL induction by the compound of formula (4): enhanced
  CTL induction by the cocktail vaccine comprising the peptide in addition to the compound of formula (4) (increase in number of CTLs): highly effective in CTL induction

## GCNKRYFKLSHL [SEQ ID NO: 46]
  Effect of the cocktail vaccine comprising the peptide on the CTL induction by the compound of formula (4): enhanced
  CTL induction by the cocktail vaccine comprising the peptide in addition to the compound of formula (4) (increase in number of CTLs): highly effective in CTL induction

## RYFKLSHLQMHSRK [SEQ ID NO: 39]
  Effect of the cocktail vaccine comprising the peptide on the CTL induction by the compound of formula (4): enhanced
  CTL induction by the cocktail vaccine comprising the peptide in addition to the compound of formula (4) (increase in number of CTLs): highly effective in CTL induction

## PGCNKRYFKLSHLQMHSRKHTG [SEQ ID NO: 4, reference compound]
  Effect of the cocktail vaccine comprising the peptide on the CTL induction by the compound of formula (4): enhanced
  CTL induction by the cocktail vaccine comprising the peptide in addition to the compound of formula (4) (increase in number of CTLs): highly effective in CTL induction

## RYFKLSHLQMH [SEQ ID NO: 45]
  Effect of the cocktail vaccine comprising the peptide on the CTL induction by the compound of formula (4): enhanced
  CTL induction by the cocktail vaccine comprising the peptide in addition to the compound of formula (4) (increase in number of CTLs): highly effective in CTL induction

## KLSHLQMHSRKHTGE [SEQ ID NO: 14]
  Effect of the cocktail vaccine comprising the peptide on the CTL induction by the compound of formula (4): enhanced
  CTL induction by the cocktail vaccine comprising the peptide in addition to the compound of formula (4) (increase in number of CTLs): highly effective in CTL induction

## NKRYFKLSHLQMHSRK [SEQ ID NO: 8]
  Effect of the cocktail vaccine comprising the peptide on the CTL induction by the compound of formula (4): enhanced
  CTL induction by the cocktail vaccine comprising the peptide in addition to the compound of formula (4) (increase in number of CTLs): highly effective in CTL induction

## RYFKLSHLQMHSRKH [SEQ ID NO: 11]
  Effect of the cocktail vaccine comprising the peptide on the CTL induction by the compound of formula (4): enhanced
  CTL induction by the cocktail vaccine comprising the peptide in addition to the compound of formula (4) (increase in number of CTLs): highly effective in CTL induction

## AYPGCNKRYFKLSHLQMH [SEQ ID NO: 43]
  Effect of the cocktail vaccine comprising the peptide on the CTL induction by the compound of formula (4): enhanced
  CTL induction by the cocktail vaccine comprising the peptide in addition to the compound of formula (4) (increase in number of CTLs): highly effective in CTL induction

## CNKRYFKLSHLQMHSRK [SEQ ID NO: 7, reference compound]
  Effect of the cocktail vaccine comprising the peptide on the CTL induction by the compound of formula (4): enhanced
  CTL induction by the cocktail vaccine comprising the peptide in addition to the compound of formula (4) (increase in number of CTLs): highly effective in CTL induction

## YFKLSHLQMHSRKHT [SEQ ID NO: 12]
  Effect of the cocktail vaccine comprising the peptide on the CTL induction by the compound of formula (4): enhanced
  CTL induction by the cocktail vaccine comprising the peptide in addition to the compound of formula (4) (increase in number of CTLs): highly effective in CTL induction

## AYPGCNKRYFKLSHLQMHSRK [SEQ ID NO: 44]
  Effect of the cocktail vaccine comprising the peptide on the CTL induction by the compound of formula (4): enhanced
  CTL induction by the cocktail vaccine comprising the peptide in addition to the compound of formula (4) (increase in number of CTLs): highly effective in CTL induction

## GCNKRYFKLSHLQMHSRK [SEQ ID NO: 6]
  Effect of the cocktail vaccine comprising the peptide on the CTL induction by the compound of formula (4): enhanced
  CTL induction by the cocktail vaccine comprising the peptide in addition to the compound of formula (4) (increase in number of CTLs): highly effective in CTL induction

## KRYFKLSHLQMHSRKH [SEQ ID NO: 10, reference compound]
  Effect of the cocktail vaccine comprising the peptide on the CTL induction by the compound of formula (4): enhanced
  CTL induction by the cocktail vaccine comprising the peptide in addition to the compound of formula (4) (increase in number of CTLs): highly effective in CTL induction

## PGCNKRYFKLSHLQMHSRK [SEQ ID NO: 5]
  Effect of the cocktail vaccine comprising the peptide on the CTL induction by the compound of formula (4): enhanced
  CTL induction by the cocktail vaccine comprising the peptide in addition to the compound of formula (4) (increase in number of CTLs): highly effective in CTL induction

## FKLSHLQMHSRKHTG [SEQ ID NO: 13]
  Effect of the cocktail vaccine comprising the peptide on the CTL induction by the compound of formula (4): enhanced
  CTL induction by the cocktail vaccine comprising the peptide in addition to the compound of formula (4) (increase in number of CTLs): highly effective in CTL induction

## YPGCNKRYFKLSHLQ [SEQ ID NO: 3]
  Effect of the cocktail vaccine comprising the peptide on the CTL induction by the compound of formula (4): enhanced
  CTL induction by the cocktail vaccine comprising the peptide in addition to the compound of formula (4) (increase in number of CTLs): highly effective in CTL induction
